Reference: ChEMBL document CHEMBL1124928, “Inhibition of monoamine oxidases A and B by simple isoquinoline alkaloids: racemic and optically active 1,2,3,4-tetrahydro-, 3,4-dihydro-, and fully aromatic isoquinolines” (J Med Chem, 1990)
Counter-ions that a name gives are not always drawn.

How the values were obtained:
[1] = target: T1, Amine oxidase [flavin-containing] A (Homo sapiens, UniProt P21397);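 note: enzyme source: monoamine oxidase A taken from human placenta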
T1 sequence (P21397 whole entry): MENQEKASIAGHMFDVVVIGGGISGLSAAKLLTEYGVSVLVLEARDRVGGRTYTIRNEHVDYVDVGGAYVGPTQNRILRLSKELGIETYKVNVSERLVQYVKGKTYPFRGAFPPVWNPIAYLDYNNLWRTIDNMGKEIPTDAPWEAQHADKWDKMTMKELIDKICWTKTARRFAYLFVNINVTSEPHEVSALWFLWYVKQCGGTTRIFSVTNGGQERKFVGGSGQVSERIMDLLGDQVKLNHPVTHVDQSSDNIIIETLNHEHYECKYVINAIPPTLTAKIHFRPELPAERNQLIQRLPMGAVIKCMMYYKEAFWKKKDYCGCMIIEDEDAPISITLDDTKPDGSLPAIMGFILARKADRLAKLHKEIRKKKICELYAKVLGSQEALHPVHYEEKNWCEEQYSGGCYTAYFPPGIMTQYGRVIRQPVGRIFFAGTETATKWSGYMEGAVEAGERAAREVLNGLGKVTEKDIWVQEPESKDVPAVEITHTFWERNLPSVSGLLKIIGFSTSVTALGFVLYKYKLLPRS

[2] = target: T2, Amine oxidase [flavin-containing] B (Homo sapiens, UniProt P27338); test: Compounds were tested for inhibition against human liver Monoamine oxidase B (competitive inhibition was observed)
T2 sequence (P27338 whole entry): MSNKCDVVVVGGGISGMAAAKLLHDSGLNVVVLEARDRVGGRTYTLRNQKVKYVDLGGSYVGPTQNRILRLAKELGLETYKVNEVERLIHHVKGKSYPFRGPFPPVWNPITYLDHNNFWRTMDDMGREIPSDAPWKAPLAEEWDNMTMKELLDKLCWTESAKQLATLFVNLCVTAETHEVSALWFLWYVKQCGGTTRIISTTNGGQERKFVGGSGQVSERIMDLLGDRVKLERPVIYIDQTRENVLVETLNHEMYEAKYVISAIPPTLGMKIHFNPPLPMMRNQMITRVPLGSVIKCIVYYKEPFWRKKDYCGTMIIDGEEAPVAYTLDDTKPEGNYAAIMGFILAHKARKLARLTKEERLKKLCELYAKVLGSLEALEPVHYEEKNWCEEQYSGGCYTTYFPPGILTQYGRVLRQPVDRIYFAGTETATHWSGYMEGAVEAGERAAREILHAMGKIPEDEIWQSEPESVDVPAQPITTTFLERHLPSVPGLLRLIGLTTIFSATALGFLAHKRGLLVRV

[3] = target: T1, Amine oxidase [flavin-containing] A; test: Compounds were tested for inhibition against human placental Monoamine oxidase A (mixed inhibition was observed)
[4] = target: T2, Amine oxidase [flavin-containing] B; test: Compounds were tested for inhibition against human liver Monoamine oxidase B (mixed inhibition was observed)
[5] = target: T1, Amine oxidase [flavin-containing] A; test: Compound was tested for inhibition against human placental Monoamine oxidase A (competitive inhibition was observed)

Row | Compound | Ki [1] | also measured
1 | COc1cc2ccncc2c(OC)c1OC | 41 µM | 
2 | COc1c2c(c(OC)c(OC)c1OC)C(C)NCC2 (racemic) | 1000 µM | 
3 | COc1c2c(c(OC)c(OC)c1OC)C(C)=NCC2 | 10 µM | 
4 | COc1c(OC)c(OC)c2c(C)nccc2c1OC | 17 µM | 
5 | COc1cc2c(cc1O)C(C)=NCC2 | 13 µM | 
6 | COc1cc2c(cc1O)CCN[C@H]2C [SALSOLINE HYDROCHLORIDE] | 160 µM | 
7 | COc1ccc2c(c1)CC[N+](C)=C2 | 4 µM | Ki [2]: 15 µM
8 | Cc1nccc2cc(O)c(O)cc12 |  | Ki [3]: 130 µM
9 | CC1c2cc(O)c(O)cc2CCN1C (racemic) | 36 µM | 
10 | C[C@H]1NCCc2cc(O)c(O)cc21 | 31 µM | 
11 | COc1cc2c(cc1OC)[C@H](C)N(C)CC2 [CARNEGINE HYDROCHLORIDE] | 102 µM | Ki [4]: 1600 µM
12 | CN1CCc2cc(O)c(O)cc2C1 | 1300 µM | 
13 | COc1cc2c(cc1O)CCN=C2C | 80 µM | 
14 | COc1c2c(c(OC)c(OC)c1OC)CNCC2 [NORWEBERINE] |  | Ki [3]: 700 µM; Ki [4]: 580 µM
15 | COc1cc2c(c(OC)c1OC)C(C)NCC2 (racemic) | 170 µM | 
16 | C[N+]1=Cc2ccccc2CC1 | 130 µM | Ki [2]: 76 µM

Row | Compound | Ki [1] | also measured
17 | COc1cc2c(cc1OC)[C@H](C)NCC2 | 186 µM | 
18 | CN1CCc2ccccc2C1 |  | Ki [2]: 1 µM
19 | COc1cc2c(cc1OC)[C@@H](C)N(C)CC2 | 2 µM | 
20 | COc1cc2c(cc1OC)C(C)=NCC2 | 4 µM | 
21 | COc1cc2c(cc1OC)CN(C)CC2 |  | Ki [2]: 29 µM; Ki [5]: 27 µM
22 | COc1cc2c(C)nccc2cc1O [listing 1 of 2 here] | 150 µM | 
23 | COc1cc2c(cc1O)C(C)NCC2 (racemic) | 34 µM | 
24 | COc1cc2c(c(OC)c1OC)C(C)=NCC2 | 2 µM | 
25 | COc1cc2c(cc1O)CCN(C)[C@H]2C (racemic) |  | Ki [3]: 70 µM; Ki [2]: 2300 µM
26 | COc1cc2c(cc1OC)[C@@H](C)NCC2 | 6 µM | 
27 | COc1cc2c(C)nccc2cc1O [listing 2 of 2 here] | 130 µM | 
28 | COc1c2c(c(OC)c(OC)c1OC)CN(C)CC2 [WEBERINE] | 260 µM | Ki [2]: 1900 µM
29 | COc1cc2c(cc1OC)CC[N+](C)=C2 | 6 µM | 
30 | COc1cc2c(c(OC)c1OC)C(C)N(C)CC2 (racemic) | 160 µM | 
31 | C[C@@H]1NCCc2cc(O)c(O)cc21 [SALSOLINOL HYDROBROMIDE] | 284 µM | 
32 | COc1cc2c(cc1O)CCN[C@@H]2C | 77 µM | 
